No end group written: not given here.
Key:
Type in all cases: binding, rabbit
[1] = test system: GRP(1-27) antisera Code R3-2; test: GRP carboxyterminal radioimmunoassay (crossreactivity, displacement of 125I-GRP(1-27) trace); conditions: for Percent Crossreactivity in RIA GRP(1-27) Code R3-2: antisera dilution 1:20,000, GRP(1-27) trace and standard, based on amount of unlabeled peptide for 50 percent displacement, highest concentration tested 1 μM; for Crossreactivity with GRP carboxyterminal antiserum (in words): summary of Table 1
Source text: (§1) Three GRP antisera were generated in rabbits against synthetic porcine GRP and GRP(1-16) (Peninsula Laboratories, San Carlos, CA) linked by a water soluble carbodiimide to bovine throglobulin (as described by Weber, E., Evans, C. J., Chang, J-K. and Barchas, J. D., J. Neurochem 38, 436-447 (1982). RIA conditions have been described in Weber, E., Evans, C. J., and Barchas, J. D., Nature 299, 77-79 (1982). Three GRP RIA's were utilized, the specificity of these RIA's is indicated in Table 1.
(§2) An antisera dilution of 1:20,000 for the GRP(1-27) R3-2 antisera and a dilution of 1:15,000 for the GRP(1-16) R2-6A were used for RIA. For these RIA's GRP(1-27) was used as ^125 I-trace and standard. An antisera dilution of 1:20,000 for GRP(1-16) R2-6B and GRP(1-16) trace and standard were used in the GRP(1-16) carboxyterminal assay. Crossreactivity was based on the amount of unlabeled peptide needed to obtain a 50 percent displacement of ^125 I-trace from the antisera. The highest concentration of unlabeled peptide tested was 1 μM.

[2] = test system: GRP(1-16) antisera Code R2-6A; test: GRP aminoterminal radioimmunoassay (crossreactivity, displacement of 125I-GRP(1-27) trace); conditions: summary of Table 1
Source text: as §1, §2

[3] = test system: GRP(1-16) antisera Code R2-6B; test: GRP(1-16) carboxyterminal radioimmunoassay (crossreactivity, displacement of 125I-GRP(1-16) trace); conditions: summary of Table 1
Source text: as §1, §2

| Molecule | Percent Crossreactivity in RIA GRP(1-27) Code R3-2 [1] | Crossreactivity with GRP carboxyterminal antiserum (in words) [1] | Crossreactivity in GRP aminoterminal RIA (in words) [2] | Crossreactivity with GRP(1-16) carboxyterminal antisera (in words) [3] |
| --- | --- | --- | --- | --- |
| CSCC[C@H](NC(=O)[C@H](CC(C)C)NC(=O)[C@H](Cc1cnc[nH]1)NC(=O)CNC(=O)[C@@H](NC(=O)[C@H](C)NC(=O)[C@H](Cc1c[nH]c2ccccc12)NC(=O)[C@H](CCC(N)=O)NC(=O)[C@H](CC(N)=O)NC(=O)CNC(=O)[C@H](CC(C)C)NC(=O)[C@H](CCCN=C(N)N)NC(=O)[C@H](CCC(N)=O)NC(=O)[C@@H]1CCC(=O)N1)C(C)C)C(N)=O [Bombesin] | 30% | crossreacted | – | – |
| CSCC[C@H](NC(=O)[C@H](CC(C)C)NC(=O)[C@H](Cc1c[nH]cn1)NC(=O)CNC(=O)[C@@H](NC(=O)[C@H](C)NC(=O)[C@H](Cc1c[nH]c2ccccc12)NC(=O)[C@H](Cc1c[nH]cn1)NC(=O)[C@H](CC(N)=O)NC(=O)CN)C(C)C)C(N)=O [GRP(18-27), Gly-Asn-His-Trp-Ala-Val-Gly-His-Leu-Met-NH2] | 60% | crossreacted | not | – |
| APVSVGGGTVLAKMYPRGNHWAVGHLM-NH2 [GRP] | 100% | crossreacted | crossreacted | little crossreactivity |

From patent US4613586A, “Gastrin releasing peptide-like peptides” (Board of Trustees of the Leland Stanford Junior University, priority 1984, dated 1986)
